Data taken from US9977024B2, “Targeted covalent probes and inhibitors of proteins containing redox-sensitive cysteines” (THE SCRIPPS RESEARCH INSTITUTE, priority 2012, dated 2018).
“Also recorded” adds a separate entry of the source.

Tests used:
[1] = molecular target: T1, oxidized PTP1B (Homo sapiens, UniProt P18031); assay: Adduct formation with oxidized PTP1B, mass spectroscopy analysis; format: binding; settings: adduct seen by mass spectroscopy analysis;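 note: detection of covalent adducts formed between each compound and oxidized PTP1B, assessed by mass spectroscopy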
T1 sequence (P18031 1-435): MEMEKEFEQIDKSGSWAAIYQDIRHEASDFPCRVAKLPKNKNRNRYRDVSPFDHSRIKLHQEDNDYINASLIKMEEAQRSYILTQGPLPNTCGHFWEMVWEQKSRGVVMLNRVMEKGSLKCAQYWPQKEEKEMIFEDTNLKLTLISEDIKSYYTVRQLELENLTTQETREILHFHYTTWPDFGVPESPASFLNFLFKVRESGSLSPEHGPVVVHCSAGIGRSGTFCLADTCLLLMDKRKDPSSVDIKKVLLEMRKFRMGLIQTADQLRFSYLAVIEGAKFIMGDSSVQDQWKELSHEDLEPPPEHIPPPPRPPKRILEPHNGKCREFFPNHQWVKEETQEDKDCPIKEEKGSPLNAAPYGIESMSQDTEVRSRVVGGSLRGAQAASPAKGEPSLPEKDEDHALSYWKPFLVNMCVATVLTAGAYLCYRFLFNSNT
Text: In further embodiments of the method, a fragment of the target protein may be used instead of the entire target protein. Certain embodiments may be directed to the binding between the compound and the target protein in the samples which may form a covalent adduct between the compound and the target protein, and the quantity of covalent adducts may be measured and compared in the samples. Any suitable assay for measuring the quantity of binding, or quantity of covalent adducts, in the two samples may be used with this method. For example, binding between the compound and the target protein may be detected using mass spectroscopy, fluorescence assays, and/or chromatography techniques. The chromatography techniques may include, but are not limited to, high-performance liquid chromatography. Further, binding between the compound and target protein may be detected using a combination of assays, for example, a combination of liquid chromatography and mass spectroscopy. The method may also be carried out in live and intact cells to determine a compound's reactivity with oxidized forms of the target protein in live cells. In certain embodiments, the potency of the compound is determined based on the degree of reduction of the quantity of adducts formed in the first sample compared with the quantity of adducts formed in the control sample, in a proportion to the quantity of compound used. In further embodiments, the potency of the compound is determined by calculating a ratio of the number of adducts formed in the first sample compared to the number of adducts formed in the control sample. A ratio of one compound can be compared directly to a ratio for another compound.
The degree of potency of the compound may be based on the degree of reduction of the quantity of adducts formed in a first sample compared with the quantity of adducts formed in the control sample in proportion to the quantity of compound used.

[2] = Dipeptide sulfenic acid model, reaction rate
[3] = molecular target: T2, PTP1B (Homo sapiens, UniProt P18031); assay: PTP assay, 4-MUP fluorescence; format: biochemical; settings: FIG. 20 fluorescence assay, percent activity
T2 sequence (P18031 1-435): T1 sequence (P18031 1-435)
Method: (§1) Cell labeling western blot assays were performed using WT PJ3H-PTP1B purified from E. coli that was cloned into a mammalian expression plasmid. Recombinant PTP1B was expressed and purified from BL21AI cells. Recombinant proteins were labeled with respective equivalences of hydrogen peroxide (PTP1B, 10 eq; Gpx3 & GAPDH, 1.5 eq) in the presence of the indicated concentrations of sulfenic acid probes for 1 hour at room temperature with constant rocking Excess probe was removed by size-exclusion chromatography. Probe modified proteins were functionalized with a biotin reporter tag through the bioorthogonal Huisgen [3+2] Cycloaddition (“click chemistry”) then analyzed by Western blot.
The PTP assay included PTP that was prepared up to 100 nM in 32 mM HEPES, pH 7.2, 5 mM NaCl, 2.5 mM EDTA, 0.83% glycerol, 0.02% Triton X-100, and 0.002% Brij-35. The protein was dispensed to a black ckear-bottomed 96-well microplate followed by the addition of redox-based probes or DMSO and allowed to incubate for 15 minutes at 25° C. The assay was initiated with the addition of 4-methylumbelliferyl phosphate (4-MUP), and the formation of fluorescent product was measured with an excitation wavelength of 358 nm and emission wavelength of 449 nm.

[4] = Microsome stability, mouse liver microsomes; format: in vitro ADME; settings: read-out: Microsome Stability Mouse t1/2
[5] = in vitro; settings: human, microsomes
[6] = Plasma stability in mice (20 mg/kg IP); format: in vivo; settings: mouse, intraperitoneal
Method: Plasma stability of drug candidates may be essential for maintaining acceptable drug concentration and half-life in order to achieve desirable pharmacological effects. Compounds 1a to 5a were evaluated for plasma stability in mice with PD168393 as the reference. […] At a time point of 24 hours, Compounds 1a-5a and PD168393 were almost completely degraded.

[7] = test system: GPX3; assay: In vitro probe labeling of oxidized recombinant protein, click chemistry and Western blot; format: binding; settings: H2O2 1.5 eq, probe 1 hour
Method: as §1

[8] = molecular target: GAPDH (Homo sapiens, UniProt P04406); assay: as above; format: binding; settings: H2O2 1.5 eq, probe 1 hour
Chain of GAPDH (P04406 whole entry, species assumed): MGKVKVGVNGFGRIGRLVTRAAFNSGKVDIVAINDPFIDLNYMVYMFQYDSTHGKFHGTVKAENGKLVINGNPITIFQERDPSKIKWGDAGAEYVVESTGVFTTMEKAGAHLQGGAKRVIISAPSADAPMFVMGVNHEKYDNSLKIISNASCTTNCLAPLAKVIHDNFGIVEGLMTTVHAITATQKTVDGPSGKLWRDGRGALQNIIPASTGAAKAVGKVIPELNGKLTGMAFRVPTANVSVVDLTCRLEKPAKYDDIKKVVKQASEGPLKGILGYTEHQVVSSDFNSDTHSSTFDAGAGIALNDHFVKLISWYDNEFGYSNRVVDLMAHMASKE
Method: as §1

[9] = test system: A431 and HeLa cells; settings: compared to DAz-2, identical conditions; cited from earlier work
[10] = Microsome stability, human liver microsomes

SMILES	REACTIVITY WITH OXIDIZED PTP1B [1]	other results
CN1C(=O)CC(=O)c2ccccc21	No Adduct	–
COc1ccc(-c2ccccc2)cc1N1CC(=O)CS1(=O)=O	No adduct	–
O=C1CC(=O)C(Cc2ccccc2)C1 (stereo not drawn)	No adduct	–
O=C1CC(=O)N(c2cc(-c3ccccc3)ccc2O)C1	Adduct	–
CC1(C)CC(=O)CC(=O)C1 [dimedone, reference compound]	not reactive enough to trap the sulfenic acid in PTP1B as an observable adduct; also recorded: no adduct	rate constant for reaction in the dipeptide model (pseudo first-order) [2]: 1 min⁻¹
COc1ccc(-c2ccccc2)cc1CN1CC(=O)CC1=O	Adduct	–
O=C1CCN(c2ccccc2)C(=O)C1	Adduct	–
O=C1CC(=O)N(Cc2cc(-c3ccccc3)ccc2O)C1	Adduct	–
O=C1CS(=O)(=O)Nc2ccccc21	No Adduct	–
O=C1CC(=O)c2ccccc21	Adduct	–
O=C1CS(=O)(=O)c2ccccc21	Adduct	–
O=C1CC(=O)N(c2ccccc2)C1	Adduct	–
O=C1CS(=O)(=O)Cc2ccccc21	Adduct	–
C#CCCCNC(=O)c1ccc(-c2ccc(NC(=O)C3CC(=O)CC(=O)C3)cc2)cc1 [Compound 3]	–	IC50 [3]: ~250 µM
O=C1CC(=O)/C(=C\c2ccccc2)C1	No adduct	–
O=C1CS(=O)(=O)c2ccccc2N1	No Adduct	–
CC(=O)CC(=O)Nc1ccc2ncnc(Nc3cccc(Br)c3)c2c1 [Compound 3a]	–	half-life [4]: 4 min; half-life [5]: 17 min; microsomal CLint [5]: 39.7 µL/min/mg; concentration at 1 h [6]: 29.1 µM; concentration at 4 h [6]: 1100 nM; concentration at 8 h [6]: 100 nM; concentration at 24 h [6]: < 25 nM

SMILES	REACTIVITY WITH OXIDIZED PTP1B [1]	other results
O=C1CCN(Cc2ccccc2)C(=O)C1	Adduct	–
O=C1CC(=O)c2ccccc2N1	No Adduct	–
O=C1CN(Cc2ccccc2)S(=O)(=O)C1	No adduct	–
O=C1CS(=O)(=O)N(Cc2ccccc2)c2ccccc21	No Adduct	–
O=C1CC(c2ccccc2)S(=O)(=O)C1 (stereo not drawn)	No adduct	–
CN1c2ccccc2C(=O)CS1(=O)=O	Adduct	–
C#CCCCNC(=O)C1CC(=O)CC(=O)C1 [Compound 1]	–	preferential detection of control protein GPX3 [7]: no preferential detection; preferential detection of control protein GAPDH [8]: no preferential detection
COc1ccc(-c2ccccc2)cc1N1CC(=O)CC1=O	Adduct	–
CC1(C)CC(=O)CC(=O)C1 [drawing 1]	No adduct	–
O=C1CC(=O)N(Cc2ccccc2)C1	Adduct	–
C#CCCCC1CCC(=O)CC1=O (stereo not drawn) [DYn-2]	–	total signal and signal ratio of cell labeling [9]: greater total signal and signal ratio compared to DAz-2
O=C1CC(=O)C(c2ccccc2)C1 (stereo not drawn)	No adduct	–
CN1C(=O)CS(=O)(=O)c2ccccc21	No Adduct	–
O=C1C/C(=C/c2ccccc2)S(=O)(=O)C1	No adduct	–
C=CC(=O)Nc1ccc2ncnc(Nc3cccc(Br)c3)c2c1 [PD168393, reference compound]	–	half-life [10]: 10 min; microsomal CLint [10]: 72.4 µL/min/mg; half-life [4]: 3 min; concentration at 1 h [6]: 2 µM; concentration at 4 h [6]: 40 nM; concentration at 8 h [6]: 50 nM; concentration at 24 h [6]: < 5 nM
O=C1CC(Cc2ccccc2)S(=O)(=O)C1 (stereo not drawn)	No adduct	–
O=C1CN(c2ccccc2)S(=O)(=O)C1	No adduct	–
